Test system: pigmented filamentous callus of Eucheuma
Test: Enhancement of somatic embryogenesis and micro-propagule production in embedded pigmented callus cultures by plant growth regulators
Format: cell-based, Eucheuma striatum (=Kappaphycus alvarezii)
Conditions: 23° C., one month
Text: The production of micro-propagules clonally through somatic embryogenesis of pigmented callus has been established. The somatic embryogenesis and micro-propagule production may further be enhanced by subculturing thin section of pigmented filamentous callus blocks (2 mm×3 mm×2 mm) in 3 mm thick agar plates (0.3-0.6% agar) with PES medium as embedded cultures. The callus blocks implanted in an agar medium grew rapidly in one month and formed colored spots in an agar with abundantly growing branched filamentous pigmented callus. The newly regenerated filamentous callus from blocks eventually transformed to produce densely pigmented (dark brown colour) micro-colonies similar to somatic embryos in branches of some filaments. […] Transfer of such filamentous callus with somatic embryos from solid (agar plates) medium to liquid PES medium facilitated rapid growth and morphogenesis in micro-propagules.
The production of micro-propagules clonally through somatic embryogenesis of pigmented callus of Eucheuma has been carried out. The somatic embryogenesis and micro-propagule production may be enhanced by subculturing thin section of pigmented filamentous callus blocks (2 mm×3 mm×2 mm) in 3 mm thick agar plates (0.4% agar) with PES medium as embedded cultures at 23° C. under cool white fluorescent fights at 50 μmol photon m^−2s^−1 irradiance with a 12:12 light and dark cycle. […]

| Molecule | production of micro-propagules / formation of somatic embryos in pigmented filamentous callus (0.1 mg l-1 each of naphthalenacetic acid and 6-benzylaminopurine combined in 0.4% agar PES medium) | production of micro-propagules / formation of somatic embryos in pigmented filamentous callus (0.1, 1.0 mg l-1 naphthalenacetic acid alone in 0.4% agar PES medium) |
| --- | --- | --- |
| c1ccc(CNc2ncnc3nc[nH]c23)cc1 [6-benzylaminopurine] | further enhanced | – |
| naphthalenacetic acid | – | further enhanced |

Source: patent publication US6858430B1, “Process for cultivation of algae” (Council of Scientific and Industrial Research, priority 2000, dated 2005)
